Data from patent US9290440B2, “Bicyclic compound” (TOA EIYO LTD., priority 2012, dated 2016).

Tested on: abdominal aorta ring specimen
Assay: Evaluation of blood vessel relaxing function (phenylephrine-contracted abdominal aorta ring)
Details: relaxation of rat abdominal aorta contracted with 1 μmol/L phenylephrine; without vs with 10 μmol/L ODQ
Procedure: The representative compounds of the present invention were evaluated by blood vessel relaxing function according to the following Test Example. In the assay, bleeding from the upper part of a heart of a rat (male, SD) was performed under anesthesia with pentobarbital (30 mg/kg) and then abdominal aorta was extracted. The connecting tissue adhered around blood vessel was removed from the abdominal aorta in an ice-cooled Krebs-Henseleit solution (KH solution) (118 mmol/L sodium chloride, 4.7 mmol/L potassium chloride, 1.2 mmol/L magnesium sulfate, 1.2 mmol/L potassium dihydrogen phosphate, 25 mmol/L sodium hydrogen carbonate, 2.5 mmol/L calcium chloride, and 10 mmol/L glucose, pH 7.4). After that, a ring specimen with length of 2 mm was prepared and fixed in 5 mL organ bath filled with a KH solution. The KH solution was kept at 37° C. and aerated with a mixture gas of 95% O2 and 5% CO2. The specimen was stabilized for 1 hour with static tension of 1 g. The KH solution was exchanged twice during that time. The tension on the specimen was recorded on a multi-channel recorder via pickup and amplifier. After the stabilization of the specimen, contraction was caused by using 1 μmol/L phenylephrine (Phe), and cumulative administration of each compound (0.001, 0.01, 0.03, 0.1, 0.3, 1, 3, 10, 30, 100, 1000, 10000 nmol/L) was performed. For the evaluation of a case in which 1H-1,2,4-oxadiazole-(4,3a)-quinoxalin-1-one (ODQ) is contained, 10 μmol/L ODQ was added 10 minutes before the Phe addition, and the same evaluation as above was performed.
EC50 value was calculated using four-parameter logistics model using Assay Explorer (Accelrys). The test compound solution was dissolved in DMSO such that the concentration of each test compound is 1000 times the final concentration.

| EC50 Ratio (ODQ−/ODQ+) | Compound |
| --- | --- |
| 12.4 | O=C(O)CCCCN(CCc1ccccc1OCc1ccc(CCc2ccccc2)cc1)Cc1ccc(C(=O)O)cc1 [Cinaciguat, reference compound] |
| 9.0 | O=C(O)CCCCN(CCc1ccccc1OCc1ccc(SCc2ccccc2)cc1)C1CCCc2cc(C(=O)O)ccc21 (stereo not drawn) [Example 15, 5-{N-[2-[2-(4-Benzylsulfanylbenzyloxyl)phenyl]ethyl]-N-(4-carboxybutyl)amino}-5,6,7,8-tetrahydronaphthalene-2-carboxylic acid] |
| 5.0 | O=C(O)CCCCN(CCc1ccccc1OCc1cccc2c1CCCC2)C1CCCc2cc(C(=O)O)ccc21 (stereo not drawn) [Example 29, 5-{N-(4-Carboxybutyl)-N-[2-[2-(5,6,7,8-tetrahydronaphthalene-1-ylmethoxy)phenyl]ethyl]amino}-5,6,7,8-tetrahydronaphthalene-2-carboxylic acid] |
